This is an account of results in patent US20240148722A1, “SMALL MOLECULES THAT BIND TO TDP-43 FOR THE TREATMENT OF ALS AND RELATED DISORDERS” (Biohaven Therapeutics Ltd., priority 2021, published 2024).

Sequence of TDP-43 1-260 (Q13148 1-260): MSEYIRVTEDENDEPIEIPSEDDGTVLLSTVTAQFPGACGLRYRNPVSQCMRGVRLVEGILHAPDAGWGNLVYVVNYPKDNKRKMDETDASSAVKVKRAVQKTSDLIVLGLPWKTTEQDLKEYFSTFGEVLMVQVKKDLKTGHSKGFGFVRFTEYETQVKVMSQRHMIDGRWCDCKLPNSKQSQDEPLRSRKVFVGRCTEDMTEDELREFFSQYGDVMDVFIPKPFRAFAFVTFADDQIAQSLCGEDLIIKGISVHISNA

The first assay concerns the target TDP-43 1-260 (Homo sapiens, UniProt Q13148). In words: TDP-43 alpha-screen assay with bt-TAR32. Type of assay: binding. To be noted: bt-TAR32 0.125 nM; 3 h at room temperature; read-out: Activity (μM) in the TDP-43-DNA alpha-screen assay. (In general: Alpha assays give light when donor and acceptor beads are brought close together.)
Experimental: Alpha-screen assay. […] Briefly, assays contained TDP-43 1-260 (15 ng/mL, 0.27 nM), 10 mg/mL of both streptavidin donor beads and anti-GST acceptor beads with various concentrations of bt-TAR32 (˜18 to +14 in the HIV1 LTR) and test compound in a final volume of 20 mL of 25 mM Tris, 0.1% CHAPS, pH 7.4 in white, opaque low volume 384-well plates. After 3 h incubation at room temperature, the AlphaScreen signal was measured using a Synergy 2 plate reader (Biotek, Winooski, VT). […] Nonspecific binding was determined in the presence of 10 mM bt-TDP43 and was less than 10% of total binding. IC50 values were obtained from nonlinear regression fits of the data to a one-site binding model using Graph Pad Prism, version 5.0 (GraphPad Software, San Diego, CA). Comparison of competitive inhibition and mixed type inhibition models were evaluated using the F-test on global fits of the data also in Graph Pad Prism, version 5.0.
With “6-(4-(2-(pyrrolidin-1-yl)ethoxy)phenyl)-N-(piperidin-4-yl)-1H-indazol-3-amine [Example 95]”, the IC50 was 2.4 µM. Turning to `CN(CCCN)CCCNc1cc(-c2ccc(N3CCNCC3)cc2)nc(-c2ccc(N3CCNCC3)cc2)c1` [Example 1], the IC50 turned out to be 0.02 µM.

On to `COc1ccc(-c2cc(NCCCN(C)CCCN)cc(-c3ccc(N4CCNCC4)cc3)n2)cc1` [Example 2, N-{3-[(3-aminopropyl)(methyl)amino]propyl}-2-(4-methoxyphenyl)-6-[4-(piperazin-1-yl)phenyl]pyridin-4-amine], for which the IC50 amounted to 0.03 µM. `COc1ccc(-c2cc(NC3CCN(C4CCC(N)CC4)CC3)cc(-c3ccc(N4CCNCC4)cc3)n2)cc1` (stereo not shown) [Example 3]: the IC50 was 0.03 µM. Consider `CN(CCCN)CCCNc1cc(-c2ccc(N3CCNCC3)cc2)nc(-c2ccc(N3CCNCC3)nc2)c1` [Example 4], for which the IC50 came out at 0.04 µM. Still for that read-out and setting: under `COc1ccc(-c2cc(NC3CCN(CCCN)CC3)cc(-c3ccc(N4CCN(C)CC4)cc3)n2)cc1` [Example 5, N-(1-(3-aminopropyl)piperidin-4-yl)-2-(4-methoxyphenyl)-6-(4-(4-methylpiperazin-1-yl)phenyl)pyridin-4-amine] stands 0.04 µM.

In the case of `COc1ccc(-c2cc(NCCCNC3CC(N)C3)cc(-c3ccc(N4CCNCC4)cc3)n2)cc1` (stereo not shown) [Example 6], the IC50 amounted to 0.04 µM. On to `COc1ccc(-c2cc(NCCCN(C)CCCN)cc(-c3cccc(N4CCNCC4)c3)n2)cc1` [Example 7, N-{3-[(3-aminopropyl)(methyl)amino]propyl}-2-(4-methoxyphenyl)-6-[3-(piperazin-1-yl)phenyl]pyridin-4-amine], for which the IC50 worked out at 0.05 µM. Same read-out and setting: under `CN(CCCN)CCCNc1cc(-c2ccc(C3CCNCC3)cc2)nc(-c2ccc(N3CCNCC3)cc2)c1` [Example 8] stands 0.05 µM; under `COc1ccc(-c2cc(NC3CCNCC3)cc(-c3ccc(N4CCN(C)CC4)cc3)n2)cc1` [Example 9, 2-(4-methoxyphenyl)-6-(4-(4-methylpiperazin-1-yl)phenyl)-N-(piperidin-4-yl)pyridin-4-amine], 0.05 µM. Turning to `COc1ccc(-c2cc(NCCCN(C)CCCN)cc(-c3ccc(N4CCN(CC5CC5)CC4)cc3)n2)cc1` [Example 10], the IC50 is 0.06 µM.

Take `CN(CCCN)CCCNc1cc(C#CC2CCNCC2)nc(-c2ccc(N3CCNCC3)cc2)c1` [Example 11, N-{3-[(3-aminopropyl)(methyl)amino]propyl}-2-[4-(piperazin-1-yl)phenyl]-6-[2-(piperidin-4-yl)ethynyl]pyridin-4-amine]: the IC50 amounted to 0.06 µM.

As to `COc1ccc(-c2cc(NC3CCN(CC4CNC4)CC3)cc(-c3ccc(N4CCN(C)CC4)cc3)n2)cc1` [Example 12, N-(1-(azetidin-3-ylmethyl)piperidin-4-yl)-2-(4-methoxyphenyl)-6-(4-(4-methylpiperazin-1-yl)phenyl)pyridin-4-amine], the IC50 amounted to 0.06 µM. The same measure, in the same setting: then `COc1ccc(-c2cc(NCCCN(C)CCCN)cc(-c3cnn(C4CCN(C)CC4)c3)n2)cc1` [Example 13, N-{3-[(3-aminopropyl)(methyl)amino]propyl}-2-(4-methoxyphenyl)-6-[1-(1-methylpiperidin-4-yl)-1H-pyrazol-4-yl]pyridin-4-amine], with 0.065 µM; and `COc1ccc(-c2cc(NCCCN(C)CCCN)cc(-c3ccc(N4CCN(CC5CNC5)CC4)cc3)n2)cc1` [Example 14], with 0.07 µM; and `CN(CCCN)CCCNc1cc(-c2ccc(CN3CCNCC3)cc2)nc(-c2ccc(N3CCNCC3)cc2)c1` [Example 16], with 0.07 µM.

As for `COc1ccc(-c2cc(NCCCN3CCC(CN)CC3)cc(-c3ccc(N4CCNCC4)cc3)n2)cc1` [Example 18], the IC50 worked out at 0.07 µM.

For the molecule `CNc1ccc(-c2cc(NCCCN(C)CCCN)cc(-c3ccc(OC)cc3)n2)cc1` [Example 19], the IC50 was 0.08 µM. On the same count and under the same terms, under `COc1ccc(-c2cc(NCCCN(C)CCCN)cc(-c3ccc(CN4CCNCC4)cc3)n2)cc1` [Example 20] stands 0.08 µM; under `COc1ccc(-c2cc(NCC3CCN(CC4CCNC4)C3)cc(-c3ccc(N4CCN(C)CC4)cc3)n2)cc1` (stereo not shown) [Example 21], 0.08 µM.

With `COc1ccc(-c2cc(NCC3CCN(C4CCNCC4)C3)cc(-c3ccc(N4CCN(C)CC4)cc3)n2)cc1` (stereo not shown) [Example 22], the IC50 is 0.08 µM. Still for that read-out and setting: then `COc1ccc(-c2cc(NCCCN(C)CCCN)cc(-c3ccc(N4CCN(C)CC4)cc3)n2)cc1` [Example 23], with 0.08 µM; and `COc1ccc(-c2cc(NCCCN(C)CCCN)cc(-c3ccc(CN4CCCC4)cc3)n2)cc1` [Example 24], with 0.09 µM. Consider `COc1ccc(-c2cc(NCC3CCN(CC4CCNC4)CC3)cc(-c3ccc(N4CCN(C)CC4)cc3)n2)cc1` (stereo not shown) [Example 25], for which the IC50 amounted to 0.09 µM. As to `COc1ccc(-c2cc(NCCCN3CCC(CN)C3)cc(-c3ccc(N4CCNCC4)cc3)n2)cc1` (stereo not shown) [Example 26], the IC50 stood at 0.1 µM. Still for that read-out and setting: under `COc1ccc(-c2cc(NC3CCN(C4CCN(C)CC4)CC3)cc(-c3ccc(N4CCNCC4)cc3)n2)cc1` [Example 27, N-(2-(4-methoxyphenyl)-6-(4-(piperazin-1-yl)phenyl)pyridin-4-yl)-1′-methyl-[1,4′-bipiperidin]-4-amine] stands 0.11 µM; under `CN(CCCN)CCCNc1cc(-c2ccc(N3CCNCC3)cc2)nc(-c2ccc3c(c2)CCNC3)c1` [Example 28], 0.11 µM. Same read-out and setting: then `COc1ccc(-c2cc(NCC3CCN(CC4CNC4)CC3)cc(-c3ccc(N4CCN(C)CC4)cc3)n2)cc1` [Example 29], with 0.11 µM. Consider `COc1ccc(-c2cc(NC3CCN(CC4CCNC4)CC3)cc(-c3ccc(N4CCNCC4)cc3)n2)cc1` (stereo not shown) [Example 30], for which the IC50 was determined as 0.12 µM. With `COc1ccc(-c2cc(NCCCN)cc(-c3ccc(N4CCNCC4)cc3)n2)cc1` [Example 31, N^1-(2-(4-methoxyphenyl)-6-(4-(piperazin-1-yl)phenyl)pyridin-4-yl)propane-1,3-diamine], the IC50 worked out at 0.12 µM.

Turning to `COc1ccc(-c2cc(NCCCN(C)CCCN)cc(-c3ccc(N4CCN(C)CC4)cc3)n2)cc1` [Example 32], the IC50 stood at 0.13 µM. `COc1ccc(-c2cc(NCCCN(C)CCCN)cc(-c3ccc(-c4ccncc4)cc3)n2)cc1` [Example 33]: the IC50 amounted to 0.13 µM. Consider `COc1ccc(-c2cc(NCC3CCN(CC4CNC4)C3)cc(-c3ccc(N4CCN(C)CC4)cc3)n2)cc1` (stereo not shown) [Example 34], for which the IC50 stood at 0.14 µM. Same read-out and setting: under `COc1ccc(-c2cc(NCCCN(C)CCCN)cc(-c3ccc(OCCCN(C)C)nc3)n2)cc1` [Example 35, N-{3-[(3-aminopropyl)(methyl)amino]propyl}-6′-[3-(dimethylamino)propoxy]-6-(4-methoxyphenyl)-[2,3′-bipyridin]-4-amine] stands 0.15 µM; under `COc1ccc(-c2cc(NC3CCN(C4CCN(C)CC4)CC3)cc(-c3ccc(N4CCNCC4)cc3)n2)cc1` [Example 36], 0.15 µM. Consider `COc1ccc(-c2cc(NCCCN(C)CCCN)cc(OCCN3CCCC3)n2)cc1` [Example 37, N-{3-[(3-aminopropyl)(methyl)amino]propyl}-2-(4-methoxyphenyl)-6-[2-(pyrrolidin-1-yl)ethoxy]pyridin-4-amine], for which the IC50 turned out to be 0.16 µM. Regarding `COc1ccc(-c2cc(NCCCN(C)CCCN)cc(-c3ccc(N4CCN(C(=O)OC(C)(C)C)CC4)cc3)n2)cc1` [Example 38], the IC50 came to 0.17 µM. The same measure, in the same setting: then `COc1ccc(-c2cc(NC3CCNCC3)cc(-c3ccc(N4CCNCC4)cc3)n2)cc1` [Example 39], with 0.19 µM; and `COc1ccc(-c2cc(NCCCN(C)C)cc(-c3ccc(N4CCN(C)CC4)cc3)n2)cc1` [Example 40], with 0.21 µM.

With `COc1ccc(-c2cc(N(C)C3CCNCC3)cc(-c3ccc(N4CCNCC4)cc3)n2)cc1` [Example 41], the IC50 stood at 0.33 µM.

For `COc1ccc(-c2cc(N(C)CCCN(C)C)cc(-c3ccc(N4CCN(C)CC4)cc3)n2)cc1` [Example 42, N-(3-(dimethylamino)propyl)-2-(4-methoxyphenyl)-N-methyl-6-(4-(4-methylpiperazin-1-yl)phenyl)pyridin-4-amine], the IC50 stood at 0.46 µM. In the case of `COc1ccc(-c2cc(NCCCN)cc(-n3cc4c(n3)CNC4)n2)cc1` [Example 43], the IC50 worked out at 0.46 µM.

With `CN(C)CCCNc1cc(-c2ccc(N3CCNCC3)cc2)nc(-c2ccc(N3CCCC3)nc2)c1` [Example 44], the IC50 is 7.95 µM. The same measure, in the same setting: under `CN1CCN(c2cncc(-c3cc(NCCCN)cc(-c4ccc(N5CCNCC5)cc4)n3)c2)CC1` [Example 45] stands 1.07 µM. On the same count and under the same terms, under `COc1ccc(-c2cc(NCCCN3CCCCC3)cc(-c3cc(OC)cc(OC)c3)n2)cc1` [Example 46] stands 6.93 µM. `COc1ccc(-c2cc(NCCCN(C)CCCN)cc(-c3c(C)noc3C)n2)cc1` [Example 47]: the IC50 is 4.64 µM. `COc1ccc(-c2cc(NCCCc3cnc[nH]3)cc(-c3ccc(N4CCN(C)CC4)cc3)n2)cc1` [Example 48]: the IC50 turned out to be 3.77 µM. As for `CCOC(=O)N1CCC(Nc2cc(-c3ccc(OC)cc3)nc(-c3ccc(N4CCNCC4)cc3)c2)CC1` [Example 50], the IC50 came out at 9.49 µM. On the same count and under the same terms, then `COc1cccc(-c2cc(NCCCN(C)CCCN)cc(-c3ccc(N4CCNCC4)cc3)n2)c1` [Example 51], with 0.64 µM; and `COc1ccc(-c2cc(NCCCN(C)CCCN)cc(-c3cnc(N4CCOCC4)s3)n2)cc1` [Example 52, N^1-(3-aminopropyl)-N^3-(2-(4-methoxyphenyl)-6-(2-morpholinothiazol-5-yl)pyridin-4-yl)-N^1-methylpropane-1,3-diamine], with 5.58 µM; and `CNS(=O)(=O)c1ccc(-c2cc(NCCCN(C)CCCN)cc(-c3ccc(OC)cc3)n2)cc1` [Example 53], with 4.17 µM. On the same count and under the same terms, then `COc1ccc(-c2cc(NC3(CCN)CC3)cc(-c3ccc(N4CCNCC4)cc3)n2)cc1` [Example 54], with 3.56 µM; and `COc1ccc(-c2cc(NCC3CCNC3)cc(-c3ccc(N4CCN(C)CC4)cc3)n2)cc1` (stereo not shown) [Example 55], with 3.56 µM.

Still in this assay, the particulars now being: same alpha-screen assay using bt-TAR32, side-by-side, three independent assays; average.
Turning to `COc1ccc(-c2cc(NC3CCN(C4CCC(N)CC4)CC3)cc(-c3ccc(N4CCNCC4)cc3)n2)cc1` (stereo not shown) [Example 3], the “increase in potency versus Compound I (average)” value is on record as 14 X.

The same assay, now with this note: same alpha-screen assay using bt-TAR32, side-by-side, three independent assays; range.
Regarding `COc1ccc(-c2cc(NC3CCN(C4CCC(N)CC4)CC3)cc(-c3ccc(N4CCNCC4)cc3)n2)cc1` (stereo not shown) [Example 3], the “increase in potency versus Compound I” value was 11-18 X.
